Results on one compound are retold here after US20060107336A1, “Nonbacterial prostatitis model animal” (priority 2002, published 2006).

Where two headings read alike, the source gives them in different places.

Series [1] relates to prostate tissue of male Wistar rats. On the procedure: 18 male Wistar rats at the age of 12-weeks-old were divided into 3 groups (test group, comparative group, and negative control group; 6 rats per group). The right inguinal region of each test group rat was incised under ether anesthesia to expose the prostate. Beneath the prostatic capsule of the right lateral lobe was injected 100 μl of sterilized 0.4 N hydrochloric acid physiological saline (a solution prepared by diluting hydrochloric acid with physiological saline to a concentration of 0.4 N, the same applies hereinbelow). The right inguinal region of each comparative group rat was incised in the same manner under ether anesthesia, and 100 μl of 0.4 N hydrochloric acid physiological saline was injected into the right vas deferens thus exposed. The peritoneum and the skin of the rats were sutured with a suture thread. To prevent operational infection, a kanamycin-containing aqueous solution was sprayed onto the site of the incision, and a physiological saline solution containing cefazolin sodium was injected into the femoral muscle in an amount of 7 mg/kg body weight. The control group refers to untreated rats (normal rats) subjected to neither an incisional operation nor hydrochloric acid injection.
The prostate, bladder and urethra were sampled from the rats of respective groups prepared in 1-1) above (test group, comparative group, and control group) to prepare tissue specimens thereof for the evaluation of change in tissue.
Specifically, the rats of the test group and the comparative group were euthanized by exsanguination under ether anesthesia 6 hours (2 rats per group), 4 days (2 rats per group), or 8 days (2 rats per group) after hydrochloric acid injection. The prostate, bladder and urethral tissues were taken out as a lump, and the tissues were fixed with 4% paraformaldehyde. The rats of the control group were subjected to the same treatment.
The frozen blocks were sliced in a cryostat to a thickness of 5 to 6 μm to prepare slide preparations of the tissue sections. The slide preparations were stained with hematoxylin-eosin (H.E), and the appearance of the tissues was observed under a microscope.
In the figures, sample code N refers to the tissue samples obtained from the control group (nonhydrochloric acid-injected rats), and sample code P refers to the tissue samples obtained from the test group (rats injected with hydrochloric acid beneath the prostatic capsules).
In the figures, sample code Y refers to tissue samples obtained from the comparative group (rats injected with hydrochloric acid into the vas deferens).

Series [2] deals with bladder function of male Wistar rats. Particulars: 8th day of rearing.
The mark [3] stands for this setting: 100 μl 0.4 N beneath prostatic capsule.
Where [4] appears, read: 100 μl 0.4 N into the vas deferens, 6 hours after injection.
[5] abbreviates: 0.1, 0.2 and 0.4 N beneath prostatic capsule.
The mark [6] stands for this setting: 100 μl 0.2 N beneath prostatic capsule.

Consider `Cl` [hydrochloric acid], for which the “urethral and bladder tissue damage extending from the prostate” value in series [1] (setting [3]) is on record as “no evidence of tissue damage”. The “localized bleeding and nerve cell tigrolysis in the stroma of the prostate dorsolateral lobes” value in series [1] (100 μl 0.4 N beneath prostatic capsule, 6 hours after injection) was “slight (+) to moderate (++)”. In addition, the “hyperplasia and fibrosis of the fibroblast, and inflammatory cellular infiltration in the stroma of the prostate dorsolateral lobes” value in series [1] (100 μl 0.4 N beneath prostatic capsule, 4 days after injection) was “moderate (++) to severe (+++)”. Also, in series [1] (100 μl 0.4 N beneath prostatic capsule, 8 days after injection), the prostate tissue damage entry was “still observable”. In addition, the “loss of glandular epithelial cells, peeling of epithelium, degeneration/necrosis, and presence of erythrocytes at the glandular cavities of the prostate dorsolateral lobes” value in series [1] (100 μl 0.4 N injected beneath prostatic capsule of right lateral lobe, 6 hours after injection) is on record as “slight (+) to moderate (++) to severe (+++)”. The “epithalaxia in the glandular cavities of the prostate dorsolateral lobes” value in series [1] (100 μl 0.4 N injected into the vas deferens (comparative group), 6 hours after injection) is recorded as “severe (+++)”. Further, in series [1] (setting [4]), the “bleeding in the stromata of the glandular tissues of the ampulla ductus deferentis” value is given as “severe (+++)”; the “epithalaxia, degeneration/necrosis and bleeding in the glandular cavities of the ampulla ductus deferentis” value is “severe (+++)”; the “localized bleeding in the stroma of the prostate dorsolateral lobes” value is on record as “severe (+++)”. Further, the prostate tissue damage result in series [1] (100 μl 0.4 N into the vas deferens, 4 days after injection) is “did not exhibit such prostate tissue damage”. The “damage at the glandular tissues of the ampulla ductus deferentis” value in series [1] (100 μl 0.4 N into the vas deferens, at least 4 days after injection) is reported as “did not exhibit such damage”. The “development of prostatitis, pathohistological point of view” value in series [1] (injected into the vas deferens of rats (animal model (5))) is reported as “only to a very slight extent”. In series [2] (setting [5]), the “correlation between concentration and change in the weight of the prostate” value is “no evidence of correlation”; the “ratio of bladder weight to body weight compared with the control group” value is “comparable or significantly higher”; the “ratio of prostate ventral lobe weight to body weight compared with the control group” value is listed as “comparable or significantly higher”; the “weight of the bladder in relation to concentration injected” value is “increased in accordance with the concentration”. The “volume of residual urine compared with the control group” value in series [2] (100 μl 0.1 N beneath prostatic capsule) is recorded as “no residual urine”. Further, in series [2] (setting [6]), the “urination interval compared with the control group” value is “significantly shorter”, the “volume of residual urine compared with the control group” value is recorded as “significantly higher” and the “volume of urine per urination compared with the control group” value is “smaller”. Moreover, in series [2] (setting [3]), the “urination interval compared with the control group” value is reported as “significantly shorter” and the “volume of urine per urination compared with the control group” value was “smaller”.
